“Also recorded” adds a separate entry of the source.
Key:
STING [1] = assay: BMDC stimulation with liposome-encapsulated STING peptides, CD86 as surrogate for STING activity; format: cell-based, mouse; settings: peptides in liposomes, 48 hours, flow cytometry
Experimental: Six cGAMP mimetic peptides (also referred to herein as STING peptides) were selected to test for activity. […] BDMCs were prepared by harvesting bone marrow from mouse hindlimbs and culturing in media (RPMI+10% FBS in 30 ng/mL GM-CSF) for 4 days. BMDCs were then stimulated with potential STING agonist peptides encapsulated in liposomes (Lipofectamine 2000) and returned to culture with GM-CSF for 48 hours. BMDCs were then evaluated for expression of CD86 by flow cytometry as a surrogate for STING activity. A schematic of the study design is provided in the left panel of FIG. 15.

TSA breast cancer cells = assay: PD-L1 as readout of DNA damage response after liposomal PARPi mimetic peptides; format: cell-based; settings: peptides in liposomes, 48 hours, flow cytometry
Experimental: PARP inhibitor peptides were computationally designed using methods as described in Example 2. Resulting PARP inhibitor (PARPi) mimetic peptides were encapsulated in liposomes and transfected into TSA breast cancer cells in vitro. 48 hours later, PD-L1 was assessed by flow cytometry as a readout of a DNA damage response. […] The PARP inhibitor olaparib was used as a positive control. […] In embodiments, the PARPi mimetic peptides may be introduced into a CAR construct for delivery to the tumor microenvironment via an engineered CAR-T cell.

B16 cells = assay: Cell death after liposomal SMACm6 with or without TNF; format: cell-based
Experimental: SMAC peptides were generated using a rational design strategy. Peptides with the best binding and potency (as measured by induction of cell death) in a dose response assay were selected for testing. SMAC mimetic peptide compositions were encapsulated in liposomes and transfected into B16 or KP (lung adenocarcinoma) cells in vitro at various concentrations in the presence of 20 ng/mL of TNF. 24 hours later, cell death was assessed by flow cytometry. Peptide 6 (SMACm6; SEQ ID NO: 8) was selected for further analysis based on dose response in multiple cell lines.
The SMACm6 mimetic peptides were encapsulated in liposomes and transfected into B16 or KP cells in vitro at various concentrations with or without 20 ng/mL TNF.

STING [2] = assay: ST2-stimulated, Ova-loaded BMDCs (WT or STING KO) co-cultured with OT-I T cells; format: cell-based, mouse; settings: for OT-I T cell Granzyme B / OT-I T cell IFNγ / OT-I T cell Ki67: 48 hours
Experimental: Activity of the STING agonist peptide ST2 was further characterized. BMDCs from wild type (WT) or STING knock-out (KO) mice were prepared as described above. Following stimulation with ST2, cells were loaded with Ova (SIINFEKL) peptide and then extensively washed to remove residual peptide. OT-I T cells specific for the Ova peptide were then added to BMDC cultures to assess DC activity and ability to stimulate CD8 T cell responses. OT-I T cell expression of Granzyme B (an indicator of cell killing activity), Ki67 (an indicator of cell proliferation), and IFNγ were assessed by flow cytometry 48 hours later.

| Substance | CD86 expression in BMDCs (STING [1]) | PD-L1 expression (TSA breast cancer cells) | other results |
| --- | --- | --- | --- |
| CIFEFPGC [ST1C] | increased CD86 expression in BMDCs at statistically significant levels over negative control | – | – |
| APLGG [Pep2] | – | increased PD-L1 expression | – |
| AVPIGGGGGGGGGGGGGGGIPVA [SMACm6] | – | – | relative cell death (B16 cells; absence of TNF): no cell death was observed; relative cell death (B16 cells; presence of 20 ng/mL TNF, increasing concentrations): increasing relative cell death; TNF dependence of cell death induction (B16 cells; presence or absence of TNF): dependent on TNF signaling |
| LFILSG [ST2] | increased CD86 expression in BMDCs at statistically significant levels over negative control; also recorded: highest CD86 expression of the peptides tested | – | OT-I T cell Granzyme B (STING [2]; STING KO BMDCs): not significantly increased over liposome-only controls; OT-I T cell IFNγ (STING [2]; STING KO BMDCs): not significantly increased over liposome-only controls; OT-I T cell Ki67 (STING [2]; STING KO BMDCs): not significantly increased over liposome-only controls; OT-I T cell Granzyme B (STING [2]; WT BMDCs): significantly increased; OT-I T cell IFNγ (STING [2]; WT BMDCs): significantly increased; OT-I T cell Ki67 (STING [2]; WT BMDCs): significantly increased; STING dependence of T cell activation (STING [2]; WT versus STING KO): requires the STING pathway; also recorded: STING dependent |
| CAPLPPC [Pep1C] | – | increased PD-L1 expression | – |
| IFEFPG [ST1] | increased CD86 expression in BMDCs at statistically significant levels over negative control | – | – |
| APLPP [Pep1] | – | increased PD-L1 expression | – |
| MFEYG [ST4] | increased CD86 expression in BMDCs at statistically significant levels over negative control | – | – |
| TFEYSG [ST3] | increased CD86 expression in BMDCs at statistically significant levels over negative control | – | – |
| LFIKP [ST5] | increased CD86 expression in BMDCs at statistically significant levels over negative control | – | – |
| VPHPP [Pep3] | – | increased PD-L1 expression | – |

Reference: patent US20240165231A1, “CAR-T DELIVERY OF SYNTHETIC PEPTIDE THERAPEUTICS” (THE TRUSTEES OF THE UNIVERSITY OF PENNSYLVANIA, priority 2021, published 2024)
